Experimental findings from patent publication US20240165243A1, “EGFR DEGRADERS AND METHODS OF USE” (BeiGene Switzerland GmbH, priority 2021, published 2024) are described below.

Holding throughout (type): cell-based
Experiment [1] relates to EGFR (Del19/T790M/C797S). In words: Cell degradation HTRF assay, H1975-clone #28 cells. The settings on record: H1975-clone #28 (Del19/T790M/C797S) cells, 16 h treatment. Put shortly: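 H1975 clones #25 and #28 were treated 16 h at 37° C, 5% CO2 with 8 doses (top 10 uM, 5-fold dilution) in 0.2% DMSO medium. EGFR in lysates read by HTRF (665/620 nm); degradation % relative to DMSO high control; DC50 from 4-parameter fit, Dmax = maximal degradation.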

Experiment [2] concerns the target T1, EGFR (L858R/T790M/C797S) (Homo sapiens, UniProt P00533, C797S/L858R/T790M). In words: Cell degradation HTRF assay, H1975-clone #25 cells. The settings on record: H1975-clone #25 (L858R/T790M/C797S) cells, 16 h treatment. The protocol:
Cell Degradation of Example 124-189
H1975-#28 and H1975-#25 cells are treated with compounds diluted in 0.2% DMSO cell culture medium on day 2, incubate for 16 h, 37° C., 5% CO2. the final concentration of compounds in all assay is start with 10 uM, 5-fold dilution, total 8 doses were included.
After 16 h treatment, add HTRF lysis buffer to each well; seal the plate and incubate 1 hour at room temperature on a plate shaker; Once the cells are lysed, 16 μL of cell lysate are transferred to a PE 384-well HTRF detection plate; 4 μL of pre-mixed HTRF antibodies are added to each well; Cover the plate with a plate sealer, spin 1000 rpm for 1 min, Incubate overnight at room temperature; Read on BMG PheraStar with HTRF protocol (337 nm-665 nm-620 nm).
The inhibition (degradation) percentage of the compound was calculated by the following equation:
(§1) Inhibition percentage of Compound=100−100×(Signal−low control)/(High control−low control), wherein signal=each test compound group.
(§2) High control=Cell group with added DMSO and without compound, indicating microplate readings without EGFR degradation;
(§3) Dmax is the maximum percentage of inhibition (degradation).
(§4) The IC50 (DC50) value of a compound can be obtained by fitting the following equation
Y=Bottom+(TOP−Bottom)/(1+((IC50/X)^hillslope))
(§5) Wherein, X and Y are known values, and IC50, Hillslope, Top and Bottom are the parameters obtained by fitting with software. Y is the inhibition percentage (calculated from the equation), X is the concentration of the compound; IC50 is the concentration of the compound when the 50% inhibition is reached. The smaller the IC50 value is, the stronger the inhibitory ability of the compound is. Vice versa, the higher the IC50 value is, the weaker the ability the inhibitory ability of the compound is; Hillslope represents the slope of the fitted curve, generally around 1*; Bottom represents the minimum value of the curve obtained by data fitting, which is generally 0%±20%; Top represents the maximum value of the curve obtained by data fitting, which is generally 100%±20%. The experimental data were fitted by calculating and analyzing with Dotmatics data analysis software. When Dmax<50%, DC50 will be automatically assigned as larger than […].

For experiment [3], the system named is EGFR (Del19/T790M/C797S). Put plainly: Cell degradation HTRF assay, BaF3-DTC cells. The settings on record: 16 h treatment; for DC50: HTRF; for DTC Dmax (%): maximum percentage of degradation. The protocol: (§6) Cell Degradation of Example 1-28
(§7) BaF3-LTC (L858R/T790M/C797S) and BaF3-DTC (Del19/T790M/C797S) cells are treated with compounds diluted in 0.2% DMSO cell culture medium and incubate for 16 h, 37° C., 5% CO2. The final concentration of compounds in all assay is start with 10 uM, 4-fold dilution, total 8 doses were included.
(§8) After 16 h treatment, add HTRF lysis buffer to each well; seal the plate and incubate 1 hour at room temperature on a plate shaker; Once the cells are lysed, 16 μL of cell lysate are transferred to a PE 384-well HTRF detection plate; 4 μL of pre-mixed HTRF antibodies are added to each well; Cover the plate with a plate sealer, spin 1000 rpm for 1 min, Incubate overnight at room temperature; Read on BMG PheraStar with HTRF protocol (337 nm-665 nm-620 nm). The inhibition (degradation) percentage of the compound was calculated by the following equation:
as §1, §2, §3, §4
(§9) Y=Bottom+(TOP−Bottom)/(1+((C50/X)^hillslope))
as §5, with “000±20%;” for “0%±20%;”

For experiment [4], the target named is T1, EGFR (L858R/T790M/C797S). In words: Cell degradation HTRF assay, BaF3-LTC cells. Further details: expressed in transfected cells; host or cells: BaF3-LTC. The settings on record: 16 h treatment; for DC50: HTRF; for Dmax: maximum percentage of degradation. The protocol:
as §6, §7, §8, §1, §2, §3, §4, §9
as §5, with “000±20%;” for “0%±20%;”

T1 sequence (P00533 25-1210 T790M/C797S/L858R): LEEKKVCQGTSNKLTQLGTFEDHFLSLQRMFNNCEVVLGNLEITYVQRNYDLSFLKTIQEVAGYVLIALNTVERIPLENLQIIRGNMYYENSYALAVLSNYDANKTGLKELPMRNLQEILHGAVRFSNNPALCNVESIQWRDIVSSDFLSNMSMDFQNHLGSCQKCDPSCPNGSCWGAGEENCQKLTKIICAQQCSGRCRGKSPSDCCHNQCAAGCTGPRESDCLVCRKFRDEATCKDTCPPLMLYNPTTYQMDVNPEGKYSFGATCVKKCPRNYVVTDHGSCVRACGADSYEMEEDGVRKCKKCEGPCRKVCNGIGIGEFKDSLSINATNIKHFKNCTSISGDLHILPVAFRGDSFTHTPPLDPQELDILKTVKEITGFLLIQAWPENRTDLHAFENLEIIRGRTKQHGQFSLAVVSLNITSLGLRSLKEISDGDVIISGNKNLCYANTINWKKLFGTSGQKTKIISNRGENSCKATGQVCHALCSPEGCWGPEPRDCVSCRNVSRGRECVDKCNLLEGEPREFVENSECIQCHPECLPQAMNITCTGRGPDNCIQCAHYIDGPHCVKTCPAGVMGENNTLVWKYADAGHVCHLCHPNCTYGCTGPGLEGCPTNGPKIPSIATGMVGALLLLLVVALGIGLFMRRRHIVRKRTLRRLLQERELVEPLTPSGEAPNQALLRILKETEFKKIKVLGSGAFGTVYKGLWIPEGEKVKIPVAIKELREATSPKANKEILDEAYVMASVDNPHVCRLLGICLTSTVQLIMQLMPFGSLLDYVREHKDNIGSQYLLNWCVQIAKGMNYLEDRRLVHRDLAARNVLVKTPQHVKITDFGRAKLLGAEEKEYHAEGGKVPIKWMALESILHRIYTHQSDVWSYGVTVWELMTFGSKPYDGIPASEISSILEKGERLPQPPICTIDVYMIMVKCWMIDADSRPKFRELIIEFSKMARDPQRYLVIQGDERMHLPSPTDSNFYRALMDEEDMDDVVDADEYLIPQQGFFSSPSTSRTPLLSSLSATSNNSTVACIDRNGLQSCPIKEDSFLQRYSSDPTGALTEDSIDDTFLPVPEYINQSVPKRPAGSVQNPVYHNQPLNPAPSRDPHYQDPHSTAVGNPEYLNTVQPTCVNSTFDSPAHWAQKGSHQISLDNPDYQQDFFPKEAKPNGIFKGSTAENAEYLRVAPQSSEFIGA

`CCOc1cc(N2CCC(N3CCN(CCc4cccc5c4n(C)c(=O)n5C4CCC(=O)NC4=O)CC3)CC2)c(CC)cc1Nc1ncc(Br)c(Nc2cnc3cc(F)ccc3c2P(C)(C)=O)n1` (stereo not drawn) [Example 147, 3-(4-(2-(4-(1-(4-((5-bromo-4-((4-(dimethylphosphoryl)-7-fluoroquinolin-3-yl)amino)pyrimidin-2-yl)amino)-5-ethoxy-2-ethylphenyl)piperidin-4-yl)piperazin-1-yl)ethyl)-3-methyl-2-oxo-2,3-dihydro-1H-benzol[d]imidazol-1-yl) piperidine-2,6-dione]: the 50% degradation concentration (DC50) is 0.4 nM in the experiment with EGFR (Del19/T790M/C797S) [1] (HTRF, read-out: H1975-clone#28 DTC DC50) and 15.3 nM at EGFR (L858R/T790M/C797S) [2] (HTRF, read-out: H1975-clone#25 LTC DC50). Further, the “H1975-clone#28 DTC Dmax (%)” value in the experiment on EGFR (Del19/T790M/C797S) [1] (maximum percentage of degradation) worked out at 84%. At EGFR (L858R/T790M/C797S) [2] (maximum percentage of degradation, read-out: H1975-clone#25 LTC Dmax (%)), the greatest degradation seen (Dmax) worked out at 77%.

Turning to `CCc1cc(Nc2ncc(Br)c(Nc3cnc4ccccc4c3P(C)(C)=O)n2)c(OC)cc1N1CCC(N2CCN(C(=O)C3CN(c4ccc5c(c4)CN(C4CCC(=O)NC4=O)C5=O)C3)CC2)CC1` (stereo not drawn) [Example 16, 3-(5-(3-(4-(1-(4-((5-bromo-4-((4-(dimethylphosphoryl)quinolin-3-yl)amino)pyrimidin-2-yl)amino)-2-ethyl-5-methoxyphenyl)piperidin-4-yl)piperazine-1-carbonyl)azetidin-1-yl)-1-oxoisoindolin-2-yl)piperidine-2,6-dione], in the experiment on EGFR (Del19/T790M/C797S) [3], the DC50 came to 2.14 nM and the “DTC Dmax (%)” value worked out at 96.98%. At EGFR (L858R/T790M/C797S) [4], the DC50 was 5.05 nM and the greatest degradation seen (Dmax) came out at 89.7%.

Regarding `CCc1cc(Nc2ncc(Br)c(Nc3cnc4ccccc4c3P(C)(C)=O)n2)c(OC)cc1N1CCC(N2CCN(C[C@H]3CCN(c4ccc5c(c4)CN(C4CCC(=O)NC4=O)C5=O)C3)CC2)CC1` (stereo partly drawn) [Example 4, 3-(5-((R)-3-((4-(1-(4-((5-bromo-4-((4-(dimethylphosphoryl)quinolin-3-yl)amino)pyrimidin-2-yl)amino)-2-ethyl-5-methoxyphenyl)piperidin-4-yl)piperazin-1-yl)methyl)pyrrolidin-1-yl)-1-oxoisoindolin-2-yl)piperidine-2,6-dione], in the experiment on EGFR (Del19/T790M/C797S) [3], half-maximal degradation (DC50) was put at 3.94 nM and the “DTC Dmax (%)” value came to 91.36%. On EGFR (L858R/T790M/C797S) [4], this molecule came in with a DC50 of 7.75 nM and a Dmax of 90.5%.

For the molecule `CCc1cc(Nc2ncc(Br)c(Nc3cnc4ccccc4c3P(C)(C)=O)n2)c(OC)cc1N1CCC(N2CCN(C(=O)C3CC4(CC(Nc5cc(F)c(C6CCC(=O)NC6=O)c(F)c5)C4)C3)CC2)CC1` (stereo not drawn) [Example 23, 3-(4-((6-(4-(1-(4-((5-bromo-4-((4-(dimethylphosphoryl)quinolin-3-yl)amino)pyrimidin-2-yl)amino)-2-ethyl-5-methoxyphenyl)piperidin-4-yl)piperazine-1-carbonyl)spiro[3.3]heptan-2-yl)amino)-2,6-difluorophenyl)piperidine-2,6-dione], in the experiment on EGFR (Del19/T790M/C797S) [3], the half-maximal degradation concentration (DC50) was 2.22 nM and the “DTC Dmax (%)” value is 94.5%. Also, at EGFR (L858R/T790M/C797S) [4], it took 11.1 nM to reach half-maximal degradation (DC50) and the Dmax is 88.6%.

On to `CCc1cc(Nc2ncc(Br)c(Nc3cnc4ccccc4c3P(C)(C)=O)n2)c(OC)cc1N1CCC(N2CCN(CCc3ccc4c(c3)C3(CC3)C(=O)N4C3CCC(=O)NC3=O)CC2)CC1` (stereo not drawn) [Example 24, 3-(5′-(2-(4-(1-(4-((5-bromo-4-((4-(dimethylphosphoryl)quinolin-3-yl)amino)pyrimidin-2-yl)amino)-2-ethyl-5-methoxyphenyl)piperidin-4-yl)piperazin-1-yl)ethyl)-2′-oxospiro[cyclopropane-1,3′-indolin]-1′-yl)piperidine-2,6-dione], for which, in the experiment on EGFR (Del19/T790M/C797S) [3], half-maximal degradation (DC50) was put at 2.88 nM and the “DTC Dmax (%)” value came out at 84.3%. In addition, on EGFR (L858R/T790M/C797S) [4], the half-maximal degradation concentration (DC50) came out at 27.5 nM and the maximal degradation (Dmax) was determined as 89.6%.

`CCc1cc(Nc2ncc(Br)c(Nc3cnc4cnccc4c3P(C)(C)=O)n2)c(OC)cc1N1CCC(N2CCN(CCc3cc(F)c(C4CCC(=O)NC4=O)c(F)c3)CC2)CC1` (stereo not drawn) [Example 28, 3-(4-(2-(4-(1-(4-((5-bromo-4-((4-(dimethylphosphoryl)-1,7-naphthyridin-3-yl)amino)pyrimidin-2-yl)amino)-2-ethyl-5-methoxyphenyl)piperidin-4-yl)piperazin-1-yl)ethyl)-2,6-difluorophenyl)piperidine-2,6-dione]: in the experiment on EGFR (Del19/T790M/C797S) [3], the DC50 is 5.4 nM and the “DTC Dmax (%)” value worked out at 90.9%. For the same molecule, at EGFR (L858R/T790M/C797S) [4], the DC50 came out at 8.95 nM and the Dmax turned out to be 81.9%.

Regarding `CCc1cc(Nc2ncc(Br)c(Nc3cnc4ccccc4c3P(C)(C)=O)n2)c(OC)cc1N1CCC(N2CCN(C(=O)C3CN(c4ccc5c(cnn5C5CCC(=O)NC5=O)c4)C3)CC2)CC1` (stereo not drawn) [Example 25, 3-(5-(3-(4-(1-(4-((5-bromo-4-((4-(dimethylphosphoryl)quinolin-3-yl)amino)pyrimidin-2-yl)amino)-2-ethyl-5-methoxyphenyl)piperidin-4-yl)piperazine-1-carbonyl)azetidin-1-yl)-1H-indazol-1-yl)piperidine-2,6-dione], in the experiment on EGFR (Del19/T790M/C797S) [3], the 50% degradation concentration (DC50) was determined as 1.8 nM and the “DTC Dmax (%)” value is 88.68%. At EGFR (L858R/T790M/C797S) [4], this molecule displayed a DC50 of 6.77 nM and a Dmax of 85%.

Consider `CCc1cc(Nc2ncc(Br)c(Nc3cnc4c(C)cccc4c3P(C)(C)=O)n2)c(OC)cc1N1CCC(N2CCN(CCC3CCN(c4cc(F)c(C5CCC(=O)NC5=O)c(F)c4)CC3)CC2)CC1` (stereo not drawn) [Example 8, 3-(4-(4-(2-(4-(1-(4-((5-bromo-4-((4-(dimethylphosphoryl)-8-methylquinolin-3-yl)amino)pyrimidin-2-yl)amino)-2-ethyl-5-methoxyphenyl)piperidin-4-yl)piperazin-1-yl)ethyl)piperidin-1-yl)-2,6-difluorophenyl)piperidine-2,6-dione], for which, in the experiment with EGFR (Del19/T790M/C797S) [3], the DC50 worked out at 11.8 nM and the “DTC Dmax (%)” value is reported as 96.88%. Moreover, on EGFR (L858R/T790M/C797S) [4], the 50% degradation concentration (DC50) came to 30.2 nM and the Dmax worked out at 89.6%.

Regarding `CCc1cc(Nc2ncc(Br)c(Nc3cnc4ccccc4c3P(C)(C)=O)n2)c(OC)cc1N1CCC(N2CCN(CCc3cccc4c3n(C)c(=O)n4C3CCC(=O)NC3=O)CC2)CC1` (stereo not drawn) [Example 21, 3-(4-(2-(4-(1-(4-((5-bromo-4-((4-(dimethylphosphoryl)quinolin-3-yl)amino)pyrimidin-2-yl)amino)-2-ethyl-5-methoxyphenyl)piperidin-4-yl)piperazin-1-yl)ethyl)-3-methyl-2-oxo-2,3-dihydro-1H-benzo[d]imidazol-1-yl)piperidine-2,6-dione], in the experiment on EGFR (Del19/T790M/C797S) [3], it took 1.11 nM to reach half-maximal degradation (DC50) and the “DTC Dmax (%)” value is 94.17%. Moreover, at EGFR (L858R/T790M/C797S) [4], half-maximal degradation (DC50) was put at 5.02 nM and the greatest degradation seen (Dmax) worked out at 93.3%.
